In article PMC11844072, “Novel 5,6-dichlorobenzimidazole derivatives as dual BRAFWT and BRAFV600E inhibitors: design, synthesis, anti-cancer activity and molecular dynamics simulations” (BMC Chemistry, 2025):

What was measured:
BRAFWT = target: T1, BRAFWT (Homo sapiens, UniProt P15056); assay: BRAFWT kinase assay kit (Kinase-Glo Max luminescence); type: biochemical; details: BRAFwt, 10 µM; mean of two independent experiments ± SD
T1 construct: purchased BPS Biosciences 78316
Description: The inhibitory activities of 10a–p on BRAFWT was examined utilizing BRAFWT assay kit (BPS Biosciences—San Diego—CA—US) (For further information see Additional file A).
4. Biochemical kinase assays
The inhibitory activity against different kinases was determined using kinase kits (BRAF WT […]
Glo Max luminescence kinase assay kit (Promega).
The assay was carried out according to the protocol provided by the manufacturer. A stock solution of the synthesized derivatives in 100% DMSO was prepared. Subsequently, the compounds were diluted to 10% DMSO.
A master mixture was prepared according to the number of wells. For BRAF assay each well include 6 μl of 5x Kinase Buffer 1 + 1 μl of ATP (500 μM) + 10 μl of 5X Raf substrate + 8 μl of distilled water. 1x Kinase buffer 1 was prepared by mixing 600 μl of 5x Kinase Buffer 1 with 2400 μl water to give 3 mL. Kinases were thawed on ice and were diluted with 1x Kinase Buffer 1.
To start the biochemical reaction, 25 µL of the master mixture was added to each well in 96 well plate. 5 µL of 10% DMSO was added to positive control wells and blank wells. 5 µL of diluted inhibitor was added to each well labelled with the test inhibitor so that the final concentration of DMSO is 1% in all reactions. Then 20 µL of (2.5 ng/μl) in case of BRAF WT and (1 ng / μl) in case of VEGFR-2 and FGFR-1 in 1x kinase buffer was added to positive control wells and wells labelled with the inhibitor, while 20 µL 1x kinase buffer 1 was added to the blank wells.
The plate was incubated at 30 °C for 45 min. Subsequently, 50 μl of Kinase-Glo Max luminescence reagent was added to each well and the plate was covered with aluminum foil and incubated at room temperature for 15 min. Finally, the luminescence was recorded using multimode microplate reader. Kinase activity assays were performed in duplicate at each concentration.
The luminescence data were analyzed as follows. The difference between luminescence intensities in the absence of kinase (Lu t) and in the presence of kinase (Lu c) was defined as 100 % […]
calculated as: % activity = {(Lu t - Lu)/(Lut - Luc)} ×100%. The concentration of the test compounds required to reduce the kinase activity by 50% was determined from dose-response curves and […]

HCT-15 = assay: NCI 60 single concentration growth inhibition; type: cell-based, human; details: HCT-15, Colon cancer; for GI%: 10 μM; for inhibition at 10 µM: Homo sapiens, read-out: GI%
Description: (§1) The synthesized dichlorobenzimidazoles 10a–p were assayed for their influence on divers cancer cell lines according to the method presented in the Additional file A.
(§2) 5. Screening of cytotoxic activity against a panel of sixty human tumor cell lines
(§3) The selected compounds by NCI were evaluated for their anticancer activity in a two-stage process. First, these compounds were screened against the full NCI 60 cell lines panel at a single high dose of 10 µM. Then, the output from the single dose screen is reported as a mean graph. […]
(§4) Assay protocol. The human tumor cell lines of the cancer screening panel are grown in RPMI 1640 medium containing 5% fetal bovine serum and 2 mM L-glutamine. For a typical screening experiment, cells are inoculated into 96 well microtiter plates in 100 µL at plating densities ranging from 5000 to 40,000 cells/well depending on the doubling time of individual cell lines. After cell inoculation, the microtiter plates are incubated at 37 °C, 5% CO 2, 95% air and 100% relative humidity for 24 h prior to addition of the experimental drugs.
(§5) After 24 h, two plates of each cell line are fixed in situ with TCA, to represent a measurement of the cell population for each cell line at the time of drug addition (Tz). The experimental drugs are solubilized in dimethyl sulfoxide at 400-fold the desired final maximum test concentration and stored frozen prior to use. At the time of drug addition, an aliquot of frozen concentrate is thawed and diluted to twice the desired final maximum test concentration with complete medium containing 50 µg/mL gentamicin. Additional four, 10-fold or ½ log serial dilutions are made to provide a total of five drug concentrations plus control.
(§6) Aliquots of […] of these different drug dilutions are added to the appropriate microtiter wells already containing […] of medium, resulting in the required final drug concentrations.
(§7) Following drug addition, the plates are incubated for an additional 48 h at 37 °C, 5% CO 2, 95% air, and 100% relative humidity. For adherent cells, the assay is terminated by the addition of cold TCA.
(§8) Cells are fixed in situ by the gentle addition of 50 µL of cold 50% (w/v) TCA (final concentration, 10% TCA) and incubated for 60 min at 4 °C. The supernatant is discarded, and the plates are washed five times with tap water and air dried. Sulforhodamine B (SRB) solution ([…]) at 0.4% (w/v) in 1% acetic acid is added to each well, and plates are incubated for 10 min at room temperature. After staining, unbound dye is removed by washing five times with 1% acetic acid and the plates are air dried. Bound stain is subsequently solubilized with 10 mM trizma base, and the absorbance is read on an automated plate reader at a wavelength of 515 nm. For suspension cells, the methodology is […]
(§9) the same except that the assay is terminated by fixing settled cells at the bottom of the wells by gently adding 50 µl of 80% TCA (final concentration, 16% TCA). Using the seven absorbance measurements [time zero, (Tz), control growth, (C), and test growth in the presence of drug at the five concentration levels (Ti)], the percentage growth is calculated at each of the drug concentrations […]
(§10) Percentage growth inhibition is calculated as: [(Ti Tz)/(C–Tz)] x 100 for concentrations for which Ti>/=Tz and [(Ti-Tz)/Tz] x 100 for concentrations for which Ti < Tz. […]
(§11) Results for each compound were reported as a mean graph of the percent growth of the treated cells when compared to the untreated control cells. There after obtaining the results for one dose assay, analysis of historical Development Therapeutics Programme (DTP) was performed and compounds which satisfies predetermined threshold inhibition criteria is selected for NCI full panel 5 dose assay.

HOP-92 = assay: NCI 60 single concentration growth inhibition; type: cell-based, human; details: HOP-92, Non-small cell lung cancer; for GI%: 10 μM; for inhibition at 10 µM: Homo sapiens, read-out: GI%
Description: as §1, §2, §3, §4, §5, §6, §7, §8, §9, §10, §11

K-562 = assay: NCI 60 single concentration growth inhibition; type: cell-based, human; details: for GI%: K-562, Leukemia, 10 μM; for inhibition at 10 µM: Homo sapiens, K562, K-562, Leukemia, read-out: GI%
Description: as §1, §2, §3, §4, §5, §6, §7, §8, §9, §10, §11

LOX IMVIL = assay: NCI 60 single concentration growth inhibition; type: cell-based, human; details: Melanoma; for GI%: 10 μM; for inhibition at 10 µM: Homo sapiens, read-out: GI%
Description: as §1, §2, §3, §4, §5, §6, §7, §8, §9, §10, §11

NCI-H522 = assay: NCI 60 single concentration growth inhibition; type: cell-based, human; details: NCI-H522, Non-small cell lung cancer; for GI%: 10 μM; for inhibition at 10 µM: Homo sapiens, read-out: GI%
Description: as §1, §2, §3, §4, §5, §6, §7, §8, §9, §10, §11

NCI/ADR-RES = assay: NCI 60 single concentration growth inhibition; type: cell-based, human; details: Ovarian cancer; for GI%: 10 μM; for inhibition at 10 µM: Homo sapiens, read-out: GI%
Description: as §1, §2, §3, §4, §5, §6, §7, §8, §9, §10, §11

SNB-19 = assay: NCI 60 single concentration growth inhibition; type: cell-based, human; details: SNB-19, CNS cancer; for GI%: 10 μM; for inhibition at 10 µM: Homo sapiens, read-out: GI%
Description: as §1, §2, §3, §4, §5, §6, §7, §8, §9, §10, §11

SW-620 = assay: NCI 60 single concentration growth inhibition; type: cell-based, human; details: SW-620, Colon cancer; for GI%: 10 μM; for inhibition at 10 µM: Homo sapiens, read-out: GI%
Description: as §1, §2, §3, §4, §5, §6, §7, §8, §9, §10, §11

TK-10 = assay: NCI 60 single concentration growth inhibition; type: cell-based, human; details: TK-10, Renal cancer; for GI%: 10 μM; for inhibition at 10 µM: Homo sapiens, read-out: GI%
Description: as §1, §2, §3, §4, §5, §6, §7, §8, §9, §10, §11

T1 sequence (P15056 whole entry): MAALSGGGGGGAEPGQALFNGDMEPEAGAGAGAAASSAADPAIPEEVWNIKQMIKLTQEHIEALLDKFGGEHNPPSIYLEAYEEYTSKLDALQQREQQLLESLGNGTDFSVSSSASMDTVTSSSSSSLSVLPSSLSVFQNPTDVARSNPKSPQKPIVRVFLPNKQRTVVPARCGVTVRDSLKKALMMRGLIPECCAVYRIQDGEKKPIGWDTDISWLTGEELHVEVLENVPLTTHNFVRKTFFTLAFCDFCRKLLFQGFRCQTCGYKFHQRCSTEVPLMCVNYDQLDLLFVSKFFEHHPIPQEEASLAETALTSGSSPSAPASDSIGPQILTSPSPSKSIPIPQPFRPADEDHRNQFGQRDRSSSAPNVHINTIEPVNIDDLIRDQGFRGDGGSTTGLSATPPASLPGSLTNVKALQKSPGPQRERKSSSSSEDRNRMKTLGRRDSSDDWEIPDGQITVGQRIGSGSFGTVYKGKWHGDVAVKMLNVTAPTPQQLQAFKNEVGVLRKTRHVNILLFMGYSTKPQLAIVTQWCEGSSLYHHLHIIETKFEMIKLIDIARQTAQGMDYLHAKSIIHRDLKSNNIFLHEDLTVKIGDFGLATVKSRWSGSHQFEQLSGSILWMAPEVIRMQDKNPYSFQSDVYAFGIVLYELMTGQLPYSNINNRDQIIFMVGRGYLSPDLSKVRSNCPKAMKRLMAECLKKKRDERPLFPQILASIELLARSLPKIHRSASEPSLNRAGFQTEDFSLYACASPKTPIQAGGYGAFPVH

| Compound | % inhibition (BRAFWT) [%] | GI% (HCT-15) | GI% (HOP-92) | GI% (K-562) | GI% (LOX IMVIL) | GI% (NCI-H522) [%] | GI% (NCI/ADR-RES) | GI% (SNB-19) | GI% (SW-620) | GI% (TK-10) | inhibition at 10 µM (BRAFWT) [%] | inhibition at 10 µM (HCT-15) [%] | inhibition at 10 µM (HOP-92) [%] | inhibition at 10 µM (K-562) [%] | inhibition at 10 µM (LOX IMVIL) [%] | inhibition at 10 µM (NCI-H522) [%] | inhibition at 10 µM (NCI/ADR-RES) [%] | inhibition at 10 µM (SNB-19) [%] | inhibition at 10 µM (SW-620) [%] | inhibition at 10 µM (TK-10) [%] |
| --- | --- | --- | --- | --- | --- | --- | --- | --- | --- | --- | --- | --- | --- | --- | --- | --- | --- | --- | --- | --- |
| 2-(4-((2-(2-(5,6-Dichloro-2-(4-methoxyphenyl)-1H-benzo[d]imidazol-1-yl)acetyl)hydrazono)methyl) -2-methoxyphenoxy)acetic acid [Compound 10m] | 77.25 ± 1.06 | – (GI% < 5%) | – (GI% < 5%) | – (GI% < 5%) | – (GI% < 5%) | 6.07 | – (GI% < 5%) | – (GI% < 5%) | – (GI% < 5%) | – (GI% < 5%) | – | – | – | – | – | – | – | – | – | – |
| 2-(5-((2-(2-(5,6-Dichloro-2-(4-methoxyphenyl)-1H-benzo[d]imidazol-1-yl)acetyl)hydrazono)methyl)-2-methoxyphenoxy)acetic acid [Compound 10n] | 90.05 ± 5.16 | – (GI% < 5%) | – (GI% < 5%) | – (GI% < 5%) | 10.35% | 8.04 | – (GI% < 5%) | – (GI% < 5%) | – (GI% < 5%) | – (GI% < 5%) | – | – | – | – | – | – | – | – | – | – |
| 3-(4-((2-(2-(5,6-Dichloro-2-(4-methoxyphenyl)-1H-benzo[d]imidazol-1-yl)acetyl)hydrazono)methyl)phenoxy)propanoic acid [Compound 10i] | 74.95 ± 5.15 | 21.36% | 6.61% | 10.25% | 10.92% | 10.42 | – (GI% < 5%) | 5.79% | – (GI% < 5%) | – (GI% < 5%) | – | – | – | – | – | – | – | – | – | – |
| COc1ccc(-c2nc3cc(Cl)c(Cl)cc3n2CC(=O)NN=Cc2cccc(O)c2)cc1 [Compound 10a, 2-(5,6-Dichloro-2-(4-methoxyphenyl)-1H-benzo[d]imidazol-1-yl)-N'-(3-hydroxybenzylidene)acetohydrazide] | – | – | – | – | – | – | – | – | – | – | 22.5 ± 1 | 60 | 23.8 | 66 | 29 | 30 | 44.5 | 50.4 | 31.7 | 37.2 |
| COc1ccc(-c2nc3cc(Cl)c(Cl)cc3n2CC(=O)NN=Cc2ccc(O)cc2)cc1 [Compound 10b, 2-(5,6-Dichloro-2-(4-methoxyphenyl)-1H-benzo[d]imidazol-1-yl)-N'-(4-hydroxybenzylidene)acetohydrazide] | – | – | – | – | – | – | – | – | – | – | 21.9 ± 1.62 | 52.3 | 40 | 47.5 | 42.6 | 21.8 | 28.5 | 39 | 18.6 | 13.9 |
| COc1ccc(-c2nc3cc(Cl)c(Cl)cc3n2CC(=O)NN=Cc2cccc(OC)c2)cc1 [Compound 10c, 2-(5,6-Dichloro-2-(4-methoxyphenyl)-1H-benzo[d]imidazol-1-yl)-N'-(3-methoxybenzylidene)acetohydrazide] | – | – | – | – | – | – | – | – | – | – | 53.85 ± 0.001 | 44.2 | 20.6 | 46.5 | 30.3 | 15.1 | 21.3 | 32.4 | 10.2 | 5.88 |
| COc1ccc(C=NNC(=O)Cn2c(-c3ccc(OC)cc3)nc3cc(Cl)c(Cl)cc32)cc1 [Compound 10d, 2-(5,6-Dichloro-2-(4-methoxyphenyl)-1H-benzo[d]imidazol-1-yl)-N'-(4-methoxybenzylidene)acetohydrazide] | – | – | – | – | – | – | – | – | – | – | 52.7 ± 0.87 | 62.9 | 10.9 | 58.7 | 24.7 | 27.9 | 36 | 50.5 | 32.3 | 34.9 |
| COc1ccc(-c2nc3cc(Cl)c(Cl)cc3n2CC(=O)NN=Cc2cccc(OCC(=O)O)c2)cc1 [Compound 10e, 2-(3-((2-(2-(5,6-Dichloro-2-(4-methoxyphenyl)-1H-benzo[d]imidazol-1-yl)acetyl)hydrazono)methyl)phenoxy)acetic acid] | – | – | – | – | – | – | – | – | – | – | 28.1 ± 2.76 | < 5 | < 5 | < 5 | < 5 | < 5 | < 5 | < 5 | < 5 | < 5 |
| COc1ccc(-c2nc3cc(Cl)c(Cl)cc3n2CC(=O)NN=Cc2ccc(OCC(=O)O)cc2)cc1 [Compound 10f, 2-(4-((2-(2-(5,6-Dichloro-2-(4-methoxyphenyl)-1H-benzo[d]imidazol-1-yl)acetyl)hydrazono)methyl)phenoxy)acetic acid] | – | – | – | – | – | – | – | – | – | – | 53.15 ± 0.36 | 6.73 | < 5 | < 5 | 8.41 | < 5 | < 5 | < 5 | < 5 | < 5 |
